Data on six molecules can be found in ChEMBL document CHEMBL4831550, “Fusidane-Type Antibiotics from the Marine-Derived Fungus Simplicillium sp. SCSIO 41513” (2021).

Converted amounts (≈) assume the structure as drawn.

The assay concerns Staphylococcus aureus. The experiment in a line: Antibacterial activity against Staphylococcus aureus ATCC 6538 assessed as inhibition of bacterial growth incubated for 24 hrs by CLSI based microdilution method. Type of assay: functional.
Consider `C/C(=C\CCC1=C2[C@H](C[C@@]3(C)[C@H]2C[C@@H](O)[C@H]2[C@@]4(C)CC[C@@H](O)[C@@H](C)[C@@H]4C[C@@H](O)[C@@]23C)OC1=O)C(=O)O`, for which the MIC99.9 is more than 100 µg/mL. For `CC(=O)O[C@H]1C[C@@]2(C)[C@@H](CC(=O)[C@H]3[C@@]4(C)CC[C@@H](O)[C@@H](C)[C@@H]4CC[C@@]32C)/C1=C(\CCC=C(C)C)C(=O)O`, the MIC99.9 is 0.078 µg/mL (≈ 0.152 µM).

On to `C/C(=C\CCC1=C2[C@H](C[C@@]3(C)[C@H]2C[C@@H](O)[C@H]2[C@@]4(C)CC[C@@H](O)[C@@H](C)[C@@H]4CC[C@@]23C)OC1=O)CO`, for which the MIC99.9 was more than 100 µg/mL. Then `C/C(=C\CCC1=C2[C@H](C[C@@]3(C)[C@H]2C[C@@H](O)[C@H]2[C@@]4(C)CC[C@@H](O)[C@@H](CO)[C@@H]4CC[C@@]23C)OC1=O)C(=O)O`, with more than 100 µg/mL. As for `CC(=O)O[C@H]1C[C@@]2(C)[C@@H](C[C@@H](O)[C@H]3[C@@]4(C)CC[C@@H](O)[C@@H](C)[C@@H]4CC[C@@]32C)/C1=C(\CC/C=C(\C)CO)C(=O)O`, the figure is 2.5 µg/mL (≈ 4.69 µM); as for `C/C(=C\CCC1=C2[C@H](C[C@@]3(C)[C@H]2C[C@@H](O)[C@H]2[C@@]4(C)CC[C@@H](O)[C@@H](C)[C@@H]4CC[C@@]23CO)OC1=O)C(=O)O`, more than 100 µg/mL.
